Measured values: ChEMBL document CHEMBL4354833, “Kinetic Target-Guided Synthesis: Reaching the Age of Maturity” (J Med Chem, 2020)
Values after ≈ are worked out from the molar mass of the structure shown. Blank lines part the entries; values can stand above or below the compound they belong to.

Assays:
[1] = molecular target: T1, Signal transducer and activator of transcription 5B (Homo sapiens, UniProt P51692); experiment: Binding affinity to MBP-tagged recombinant STAT5b-SH2 domain (unknown origin) using carboxyfluoresceine-labeled phosphotyrosine octapeptide incubated for 12 hrs by fluorescence polarization assay
T1 sequence (P51692 whole entry): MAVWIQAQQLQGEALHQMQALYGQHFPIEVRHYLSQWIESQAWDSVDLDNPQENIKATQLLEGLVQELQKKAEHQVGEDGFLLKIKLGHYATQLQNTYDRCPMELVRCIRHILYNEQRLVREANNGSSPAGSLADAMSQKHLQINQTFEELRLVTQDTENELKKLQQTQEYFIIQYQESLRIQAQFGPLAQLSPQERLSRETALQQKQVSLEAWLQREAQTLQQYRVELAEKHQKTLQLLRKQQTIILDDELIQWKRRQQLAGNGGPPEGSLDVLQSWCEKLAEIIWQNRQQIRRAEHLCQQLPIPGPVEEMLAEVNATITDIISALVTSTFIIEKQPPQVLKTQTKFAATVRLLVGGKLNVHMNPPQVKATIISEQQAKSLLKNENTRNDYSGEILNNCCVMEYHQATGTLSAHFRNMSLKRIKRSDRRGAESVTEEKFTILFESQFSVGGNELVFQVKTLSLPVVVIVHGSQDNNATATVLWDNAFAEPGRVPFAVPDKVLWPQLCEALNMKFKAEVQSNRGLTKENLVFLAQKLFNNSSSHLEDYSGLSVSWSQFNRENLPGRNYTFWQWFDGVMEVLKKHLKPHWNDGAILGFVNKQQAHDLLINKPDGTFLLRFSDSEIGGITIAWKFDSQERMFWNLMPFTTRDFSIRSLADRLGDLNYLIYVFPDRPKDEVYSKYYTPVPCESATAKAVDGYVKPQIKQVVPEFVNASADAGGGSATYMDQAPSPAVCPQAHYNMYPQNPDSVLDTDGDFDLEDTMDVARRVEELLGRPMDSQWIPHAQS

[2] = Inhibition of Enterovirus A71 3c protease
[3] = molecular target: T2, Prostaglandin G/H synthase 2 (Homo sapiens, UniProt P35354); experiment: Binding affinity to human COX2
T2 sequence (P35354 whole entry): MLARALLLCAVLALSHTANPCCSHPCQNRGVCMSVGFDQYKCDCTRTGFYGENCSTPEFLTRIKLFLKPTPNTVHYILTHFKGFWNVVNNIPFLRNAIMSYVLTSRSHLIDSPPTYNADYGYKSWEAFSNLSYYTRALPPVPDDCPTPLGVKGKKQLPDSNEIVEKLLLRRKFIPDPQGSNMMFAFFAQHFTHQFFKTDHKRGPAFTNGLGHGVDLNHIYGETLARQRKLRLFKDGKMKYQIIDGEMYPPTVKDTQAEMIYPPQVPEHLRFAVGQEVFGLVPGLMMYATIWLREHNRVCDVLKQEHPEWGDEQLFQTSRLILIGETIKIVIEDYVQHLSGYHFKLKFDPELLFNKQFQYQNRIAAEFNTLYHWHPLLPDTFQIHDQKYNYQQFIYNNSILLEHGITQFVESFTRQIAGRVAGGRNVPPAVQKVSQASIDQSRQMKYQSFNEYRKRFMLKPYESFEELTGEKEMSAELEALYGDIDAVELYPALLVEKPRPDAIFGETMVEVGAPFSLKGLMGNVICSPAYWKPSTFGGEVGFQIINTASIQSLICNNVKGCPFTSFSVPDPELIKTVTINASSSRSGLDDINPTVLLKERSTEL

NAD kinase 1 = molecular target: T3, NAD kinase 1 (Listeria monocytogenes serovar 1/2a (strain ATCC BAA-679 / EGD-e), UniProt Q8Y8D7); experiment: Inhibition of Listeria monocytogenes NAD kinase assessed as suppression of reduced NADP formation by yeast glucose-6-phosphate dehydrogenase coupled assay
T3 sequence (Q8Y8D7 whole entry): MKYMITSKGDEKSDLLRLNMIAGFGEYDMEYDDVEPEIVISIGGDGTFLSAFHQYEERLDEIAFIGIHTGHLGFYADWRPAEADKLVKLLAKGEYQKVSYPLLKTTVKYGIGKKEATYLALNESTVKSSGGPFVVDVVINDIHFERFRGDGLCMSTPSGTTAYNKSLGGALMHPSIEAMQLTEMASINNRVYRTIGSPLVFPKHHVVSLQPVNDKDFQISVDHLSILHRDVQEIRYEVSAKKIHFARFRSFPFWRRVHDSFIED

Rattus norvegicus = species: Rattus norvegicus; experiment: animal or person; conditions: 3 h
Description: Antiinflammatory activity in rat model of carrageenan-induced paw edema model after 3 hrs

Streptococcus pneumoniae = experiment: Antimicrobial activity against Streptococcus pneumoniae ATCC 49619; type: functional
Bacterial 70S ribosome = experiment: Binding affinity to Escherichia coli 70S ribosome assessed as reduction in BODIPY-Erythromycin A binding incubated for 1 hr by fluorescence polarization assay; type: subcellular
[4] = molecular target: Bacterial 70S ribosome (Bacteria) (UniProt P0A7V0+P60723+P0AG67+P0A7R5+P0A7R9+P0A7S3+P0A7S9+P0AG59+P0ADZ4+P0A7T3+P0AG63+P0A7T7+P0A7U3+P0A7U7+P68679+P0A7V3+P0A7V8+P0A7W1+P02358+P02359+P0A7W7+P0A7X3+P0A7J3+P0A7J7+P0AA10+P0ADY3+P02413+P0ADY7+P0AG44+P0C018+P0A7K6+P0A7L0+P0A7L3+P0AG48+P61175+P0ADZ0+P60624+P68919+P0A7L8+P0A7M2+P0A7M6+P60422+P0AG51+P0A7N1+P0A7M9+P0A7N4+P0A7N9+P0A7P5+P0A7Q1+Q2EEQ2+P0A7Q6+P60438+P62399+P0AG55+P0A7K2); experiment: Inhibition of 70S ribosome in Escherichia coli cell free system assessed as reduction in protein synthesis by measuring EmGFP synthesis at 1 uM by cell-free translation inhibition method relative to control; type: subcellular
Coagulation factor X = Coagulation factor X (Homo sapiens, UniProt P00742); experiment: Inhibition human FA10a using Boc-LeuGly-Arg-AMC fluorogenic substrate
[5] = Biodistribution in RBC of SCID mouse measured after 10 mins; type: ADME, organism-based; conditions: erythrocyte
[6] = Biodistribution in plasma of SCID mouse measured after 10 mins; type: ADME, organism-based; conditions: in vivo
Carbonic anhydrase 2 = Carbonic anhydrase 2 (Bos taurus, UniProt P00921); experiment: Binding affinity to bovine carbonic anhydrase 2
Prothrombin = Prothrombin (Homo sapiens, UniProt P00734); experiment: Inhibition of thrombin (unknown origin)

Carbonic anhydrase 2, sequence (P00921 whole entry): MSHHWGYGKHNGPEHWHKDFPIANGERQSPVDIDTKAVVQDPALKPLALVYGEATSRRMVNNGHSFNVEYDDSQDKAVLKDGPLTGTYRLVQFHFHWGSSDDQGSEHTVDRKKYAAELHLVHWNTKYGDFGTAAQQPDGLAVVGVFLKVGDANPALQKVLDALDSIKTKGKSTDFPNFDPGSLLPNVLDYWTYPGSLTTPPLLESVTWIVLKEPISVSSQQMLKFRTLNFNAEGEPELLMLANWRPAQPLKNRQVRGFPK
Coagulation factor X, sequence (P00742 41-179 limits assumed): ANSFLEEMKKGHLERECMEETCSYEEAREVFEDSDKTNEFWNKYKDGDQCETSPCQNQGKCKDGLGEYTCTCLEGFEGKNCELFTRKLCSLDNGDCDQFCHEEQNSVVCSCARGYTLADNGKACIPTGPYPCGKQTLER
Coagulation factor X, sequence (P00742 235-488 limits assumed): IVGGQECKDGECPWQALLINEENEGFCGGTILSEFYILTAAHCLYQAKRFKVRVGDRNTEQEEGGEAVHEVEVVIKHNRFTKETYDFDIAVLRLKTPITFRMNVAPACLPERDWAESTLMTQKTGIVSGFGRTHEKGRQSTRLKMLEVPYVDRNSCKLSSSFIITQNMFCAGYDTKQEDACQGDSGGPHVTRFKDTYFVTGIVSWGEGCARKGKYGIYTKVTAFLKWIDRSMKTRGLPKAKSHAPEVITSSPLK

SMILES: COC(=O)c1nonc1NCn1cnnn1
IC50 [1]: 37 µM

SMILES: [N-]=[N+]=NC[C@H]1O[C@@H](n2c(SCC(=O)NC[C@H]3O[C@@H](n4cnc5c(N)ncnc54)[C@H](O)[C@@H]3O)nc3c(N)ncnc32)[C@H](O)[C@@H]1O
Ki (NAD kinase 1): 25 µM

SMILES: Cc1cc(-n2cc(-c3ccc(N)cc3)nn2)n(-c2ccc(S(C)(=O)=O)cc2)n1
ED50 (Rattus norvegicus): 0.12 mg/kg

SMILES: CC[C@H]1OC(=O)[C@@](C)(F)C(=O)[C@H](C)[C@@H](O[C@@H]2O[C@H](C)C[C@H](N(C)C)[C@H]2O)[C@](C)(OC)C[C@@H](C)C(=O)[C@H](C)[C@H]2N(CCCCn3cc(-c4cccc(N)c4)nn3)C(=O)O[C@]12C [SOLITHROMYCIN]
MIC (Streptococcus pneumoniae): 6 ng/mL (≈ 7.1 nM) | Kd (Bacterial 70S ribosome): 0.6 nM | inhibition [4]: 47%

SMILES: CC[C@H]1OC(=O)[C@@](C)(F)C(=O)[C@H](C)[C@@H](O[C@@H]2O[C@H](C)C[C@H](N(C)C)[C@H]2O)[C@](C)(OC)C[C@@H](C)C(=O)[C@H](C)[C@H]2N(CCCCN=[N+]=[N-])C(=O)O[C@]12C
MIC (Streptococcus pneumoniae): 2 ng/mL (≈ 2.75 nM) | Kd (Bacterial 70S ribosome): 2.1 nM

SMILES: CC[C@H]1OC(=O)[C@@](C)(F)C(=O)[C@H](C)[C@@H](O[C@@H]2O[C@H](C)C[C@H](N(C)C)[C@H]2O)[C@](C)(OC)C[C@@H](C)C(=O)[C@H](C)[C@H]2N(CCCCn3cc(-c4cccc(N(C)C)c4)nn3)C(=O)O[C@]12C
MIC (Streptococcus pneumoniae): 5 ng/mL (≈ 5.73 nM) | Kd (Bacterial 70S ribosome): 1.4 nM | inhibition [4]: 37%

SMILES: N=C(N)c1ccc(CN)cc1
Ki (Coagulation factor X): 680 µM

Second part, the compound after the results:

IC50 [2]: 1430 nM
SMILES: CCOC(=O)CC[C@H](C[C@@H]1CCCNC1=O)NC(=O)[C@H](Cc1ccccc1)NC(=O)C(O)CC(=O)c1ccncc1 (stereo partly specified)

IC50 [2]: 150 nM
SMILES: O=C[C@H](C[C@@H]1CCCNC1=O)NC(=O)[C@H](Cc1ccccc1)NC(=O)C(O)CC(=O)c1ccncc1 (stereo partly specified)

Kd [3]: 10 nM
SMILES: Cc1cnc(Cn2cc(-c3onc(-c4ccccc4)c3-c3ccc(S(N)(=O)=O)cc3)nn2)c(C)c1[18F]

Ki [1]: > 5000 µM
SMILES: O=C(O)c1nonc1NCn1nnnc1-c1cccc(F)c1

Ki [1]: 0.6 µM
SMILES: O=C(O)c1nonc1NCn1nnnc1-c1ccc(F)cc1

Drug uptake [5]: 90% | Drug uptake [6]: 10% | Kd (Carbonic anhydrase 2): 0.5 nM
SMILES: CC(C)[C@H](C(=O)NCc1cc([18F])ccn1)n1cc(-c2ccc(S(N)(=O)=O)cc2)nn1

Ki (Prothrombin): 50 nM
SMILES: N=C(N)c1ccc(NC(C(=O)NCc2ccccc2)c2ccccc2)cc1 (stereo unspecified)
